Data: patent US6803385B2, “Hydroxyeicosatetraenoic acid analogs and methods of their use in treating dry eye disorders” (Alcon, Inc., priority 1999, dated 2004)

Test system: rabbit model of dry eye (corneal staining)
Experiment: Inhibition of corneal staining in a rabbit model of dry eye (ConA lacrimal gland inflammation plus desiccation, methylene blue uptake)
Type: in vivo, New Zealand white rabbits
Settings: 1 μM, topical QID 50 μl, methylene blue corneal staining (A660) vs BSS vehicle
Method: Compounds 173 and 175 were evaluated for their ability to inhibit corneal staining in a rabbit model of dry eye, as per the following experimental protocol.
New Zealand white (NZA) rabbits (approximately 2.5 kg) were obtained from Myrtle's Rabbitry (Thompson Station, Tenn.). Animals were maintained in a controlled environment with a 12-hour on/off light cycle at 65±5° F. and at least 30% humidity. All aspects of animal handling, housing and experimentation conformed to the ARVO Statement for the Use of Animals in Ophthalmic and Vision Research.
Rabbits were randomized and dosed topically QID with 50 μl of test article or BSS® solution beginning 24 hours prior to lacrimal gland injection. […]
Desiccation was initiated three days following ConA injection by placing conscious rabbits into an environmental chamber (20%-30% humidity/75° F.). […] The concentration of the extracted dye was determined spectrophotometrically by measuring its absorbance at λ=660 nanometers (A660). Data are expressed as mean±standard deviation (S.D.). Percent inhibition was calculated as {1−[(A660test item−A660Normal)/(A660BSS−A660Normal)]}×100, where A660test item is the absorbance of dye from ConA-injected eyes dosed with the test item, A660Normal is the absorbance of dye from saline-injected eyes, and A660BSS is the absorbance of dye in ConA-injected eyes dosed with BSS® solution vehicle.

CCCCC[C@H](O)/C=C/C=C\C/C=C\C/C=C\CCCC(=O)O [Compound 15S-HETE, (15S)-(5Z,8Z,11Z,13E)-15-hydroxy-eicosa-5,8,11,13-tetraenoic acid]
% Inhibition ± S.D. (Experiment 1): 70 ± 18%
% Inhibition ± S.D. (Experiment 2): 77% ± 18%
